Data on 33 molecules can be found in patent publication US8785486B2, “Imidazo[1,2-A]pyridine derivatives and their use as positive allosteric modulators of mGluR2 receptors” (Janssen Pharmaceuticals, Inc., priority 2007, dated 2014).

The target in series [1] is T1, human mGluR2 receptor (Homo sapiens, UniProt Q14416).
T1 construct: expressed in transfected cells; host or cells: CHO cells
The series is described as follows: [35S]GTPγS binding assay (PAM assay) using membranes from cells transfected with the human mGluR2 receptor. The class given is biochemical. Conditions: membranes of CHO cells with human mGluR2, glutamate at predetermined EC25 concentration, averages of duplicate values of 11-concentration response curves; for EC50: read-out: GTPγS - hR2 PAM pEC50 (converted). The protocol:
The [^35S]GTPγS binding assay is a functional membrane-based assay used to study G-protein coupled receptor (GPCR) function whereby incorporation of a non-hydrolysable form of GTP, [^35S]GTPγS (guanosine 5′-triphosphate, labelled with […] ^35S), is measured.
CHO-cells were cultured to pre-confluence and stimulated with 5 mM butyrate for 24 hours, prior to washing in PBS, and then collection by scraping in homogenisation buffer (50 mM Tris-HCl buffer, pH 7.4, 4° C.). Cell lysates were homogenized briefly (15 s) using an ultra-turrax homogenizer. The homogenate was centrifuged at 23 500×g for 10 minutes and the supernatant discarded. The pellet was resuspended in 5 mM Tris-HCl, pH 7.4 and centrifuged again (30 000×g, 20 min, 4° C.). The final pellet was resuspended in 50 mM HEPES, pH 7.4 and stored at −80° C. in appropriate aliquots before use. Protein concentration was determined by the Bradford method (Bio-Rad, USA) with bovine serum albumin as standard.
Measurement of mGluR2 positive allosteric modulatory activity of test compounds in membranes containing human mGluR2 was performed using frozen membranes that were thawed and briefly homogenised prior to pre-incubation in 96-well microplates (15 μg/assay well, 30 minutes, 30° C.) in assay buffer (50 mM HEPES pH 7.4, 100 mM NaCl, 3 mM MgCl2, 50 μM GDP, 10 μg/ml saponin,) with increasing concentrations of positive allosteric modulator (from 0.3 nM to 50 μM) and either a minimal pre-determined concentration of glutamate (PAM assay), or no added glutamate. […] After addition of [^35S]GTPγS (0.1 nM, f.c.) to achieve a total reaction volume of 200 μl, microplates were shaken briefly and further incubated to allow [^35S]GTPγS incorporation on activation (30 minutes, 30° C.). The reaction was stopped by rapid vacuum filtration over glass-fibre filter plates (Unifilter 96-well GF/B filter plates, Perkin-Elmer, Downers Grove, USA) microplate using a 96-well plate cell harvester (Filtermate, Perkin-Elmer, USA), and then by washing three times with 300 μl of ice-cold wash buffer (Na2PO4.2H2O 10 mM, NaH2PO4.H2O 10 mM, pH=7.4). Filters were then air-dried, and 40 μl of liquid scintillation cocktail (Microscint-O) was added to each well, and membrane-bound [^35S]GTPγS was measured in a 96-well scintillation plate reader (Top-Count, Perkin-Elmer, USA). Non-specific [^35S]GTPγS binding is determined in the presence of cold 10 μM GTP. Each curve was performed at least once using duplicate sample per data point and at 11 concentrations.
The concentration-response curves of representative compounds of the present invention in the presence of added EC25 of mGluR2 agonist glutamate to determine positive allosteric modulation (PAM), were generated using the Prism GraphPad software (Graph Pad Inc, San Diego, USA). The curves were fitted to a four-parameter logistic equation (Y=Bottom+(Top-Bottom)/(1+10^((Log EC50−X)*Hill Slope) allowing determination of EC50 values. The EC50 is the concentration of a compound that causes a half-maximal potentiation of the glutamate response. This is calculated by subtracting the maximal responses of glutamate in presence of a fully saturating concentration of a positive allosteric modulator from the response of glutamate in absence of a positive allosteric modulator. The concentration producing the half-maximal effect is then calculated as EC50
(GTPγS is a poorly hydrolysed GTP analogue; its binding reports G protein activation.)

T1 sequence (Q14416 19-872): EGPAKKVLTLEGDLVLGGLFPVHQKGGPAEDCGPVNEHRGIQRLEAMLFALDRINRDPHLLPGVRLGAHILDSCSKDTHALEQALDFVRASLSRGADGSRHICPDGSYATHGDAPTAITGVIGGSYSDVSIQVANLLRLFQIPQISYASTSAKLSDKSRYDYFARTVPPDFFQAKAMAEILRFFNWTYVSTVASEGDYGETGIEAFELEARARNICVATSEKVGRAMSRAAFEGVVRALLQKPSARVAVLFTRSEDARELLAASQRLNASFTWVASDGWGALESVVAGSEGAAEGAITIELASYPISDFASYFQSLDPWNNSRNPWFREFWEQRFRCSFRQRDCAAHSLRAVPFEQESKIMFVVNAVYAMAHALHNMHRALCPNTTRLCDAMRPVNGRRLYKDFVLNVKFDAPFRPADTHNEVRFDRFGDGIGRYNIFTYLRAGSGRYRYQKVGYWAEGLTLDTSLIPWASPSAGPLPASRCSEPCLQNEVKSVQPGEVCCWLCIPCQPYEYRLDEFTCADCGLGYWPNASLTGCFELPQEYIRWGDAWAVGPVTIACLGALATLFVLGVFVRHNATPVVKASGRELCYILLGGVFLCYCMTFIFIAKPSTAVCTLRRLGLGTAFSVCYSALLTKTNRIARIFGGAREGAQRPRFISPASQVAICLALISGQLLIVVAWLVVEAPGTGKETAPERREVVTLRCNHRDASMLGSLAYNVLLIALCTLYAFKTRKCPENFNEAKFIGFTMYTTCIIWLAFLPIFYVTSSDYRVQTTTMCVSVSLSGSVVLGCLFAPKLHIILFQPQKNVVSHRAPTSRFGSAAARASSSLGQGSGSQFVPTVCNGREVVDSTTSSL

Turning to `CCCc1cnc2c(C#N)c(N3CCC(c4cccc(C(F)(F)F)c4)CC3)ccn12` [Example 5], the melting point fell in the range of 126.8 to 131 °C. Further, the EC50 in series [1] was 107 nM.

The molecule `CC(C)(O)c1ccc(C2CCN(c3ccn4c(CC(F)(F)F)cnc4c3Cl)CC2)cc1` [Example 63] gave a melting point of 189.3 °C. In addition, in series [1], the EC50 is 389 nM.

Take `N#Cc1c(N2CCC(c3ccccc3)CC2)ccn2c(CCCC(F)(F)F)cnc12` [Example 28, 7-(4-Phenyl-piperidin-1-yl)-3-(4,4,4-trifluoro-butyl)-imidazo[1,2-a]pyridine-8-carbonitrile]: the melting point is 128.5 °C. Further, the EC50 in series [1] was 132 nM.

Molecule `C[C@]1(O)CC[C@@H](Nc2ccc(-c3ccn4c(CC(F)(F)F)cnc4c3C#N)cc2Cl)CC1` [Example 89] showed a melting point of 161.6 °C. Moreover, in series [1], the EC50 was 275 nM.

`N#Cc1c(CN2CCC(c3ccccc3F)CC2)ccn2c(CC(F)(F)F)cnc12` [Example 44] came in with a melting point of 152 °C. The EC50 in series [1] was 324 nM.

In turn, `N#Cc1c(-c2ccc(Oc3cccc(F)c3)cc2)ccn2c(CC(F)(F)F)cnc12` [Example 78] returned a melting point of 176 °C. For the same molecule, in series [1], the EC50 is 219 nM.

The molecule `CCCc1cnc2c(C#N)c(N3CCN(c4nc(C)cc(C)n4)CC3)ccn12` [Example 14] returned a melting point of 194.4 °C. The “GTPγS - hR2 PAM pEC50” value in series [1] amounted to 6.19.

Regarding `Cc1cc(Oc2ccc(-c3ccn4c(CCCC(F)(F)F)cnc4c3C#N)cc2F)ccn1` [Example 73], the melting point was 234.1 °C. In series [1], the EC50 was 1050 nM.

The molecule `N#Cc1c(-c2ccc(Oc3ccccc3F)cc2)ccn2c(CC(F)(F)F)cnc12` [Example 77] returned a melting point of 177.9 °C. In series [1], the EC50 is 105 nM.

With `N#Cc1c(N2CCC(c3ccccc3)CC2)ccn2c(CCC3CC3)cnc12` [Example 48], the melting point is 145.4 °C. Besides, in series [1], the EC50 is 93.3 nM.

With `N#Cc1c(N2CCC(c3ccccc3)CC2)ccn2c(-c3ccc(F)cc3F)cnc12` [Example 47], the melting point turned out to be 267 °C. Also, the EC50 in series [1] was 229 nM.

Consider `N#Cc1c(-c2ccc(Oc3ccc(F)cc3)cc2)ccn2c(CC(F)(F)F)cnc12` [Example 74], for which the melting point came to 163 °C. Besides, the EC50 in series [1] is 170 nM.

In turn, `CCc1cnc2c(C#N)c(N3CCC(c4ccccc4)CC3)ccn12` [Example 12] showed a melting point of 150 °C. The “GTPγS - hR2 PAM pEC50” value in series [1] amounted to 6.30.

Regarding `FC(F)(F)Cc1cnc2c(Cl)c(N3CCC(c4ccccc4)CC3)ccn12` [Example 51, 8-Chloro-7-(4-phenyl-piperidin-1-yl)-3-(2,2,2-trifluoro-ethyl)-imidazo[1,2-a]pyridine], the melting point turned out to be 263.1 °C. The EC50 in series [1] is 158 nM.

Take `O[C@H]1CC[C@H](Nc2ccc(-c3ccn4c(CC(F)(F)F)cnc4c3Cl)cc2Cl)CC1` [Example 101, 4-{2-Chloro-4-[8-chloro-3-(2,2,2-trifluoro-ethyl)-imidazo[1,2-a]pyridin-7-yl]phenylamino}-cyclohexanol]: the melting point is 183.1 °C. Also, in series [1], the EC50 is 155 nM.

Take `N#Cc1c(-c2ccc(COc3cccc(F)c3)cc2)ccn2c(CC(F)(F)F)cnc12` [Example 114]: the melting point turned out to be 207.1 °C. The EC50 in series [1] was 141 nM.

On to `N#Cc1c(N2CCC(F)(c3ccccc3)CC2)ccn2c(CC(F)(F)F)cnc12` [Example 68, 7-(4-Fluoro-4-phenyl-piperidin-1-yl)-3-(2,2,2-trifluoro-ethyl)-imidazo[1,2-a]pyridine-8-carbonitrile], for which the melting point worked out at 214 °C. Also, in series [1], the EC50 is 93.3 nM.

`Fc1ccccc1C1CCN(Cc2ccn3c(CC(F)(F)F)cnc3c2Cl)CC1` [Example 41] came in with a melting point of 161.1 °C. The EC50 in series [1] is 437 nM.

Regarding `CC(C)(O)c1ccccc1C1CCN(c2ccn3c(CC(F)(F)F)cnc3c2Cl)CC1` [Example 65, 2-(2-{1-[8-Chloro-3-(2,2,2-trifluoro-ethyl)-imidazo[1,2-a]pyridin-7-yl]-piperidin-4-yl}-phenyl)-propan-2-ol], the melting point stood at 234.7 °C. Further, the EC50 in series [1] is 178 nM.

For `Fc1ccc(N2CCN(Cc3ccn4c(CC(F)(F)F)cnc4c3Cl)CC2)c(F)c1` [Example 37], the melting point turned out to be 156.9 °C. Moreover, in series [1], the EC50 was 3020 nM.

Molecule `N#Cc1c(N2CCC3(CCc4ccccc4O3)CC2)ccn2c(CC(F)(F)F)cnc12` [Example 115] had a melting point of 198.7 °C. In addition, in series [1], the EC50 was 214 nM.

Regarding `C[C@]1(O)CC[C@H](Nc2ccc(-c3ccn4c(CC(F)(F)F)cnc4c3Cl)cc2Cl)CC1` [Example 100, (trans)-4-{2-Chloro-4-[8-chloro-3-(2,2,2-trifluoro-ethyl)-imidazo[1,2-a]pyridin-7-yl]-phenylamino}-1-methyl-cyclohexanol], the melting point amounted to 205.1 °C. For the same molecule, the EC50 in series [1] is 126 nM.

As for `C[C@]1(O)CC[C@H](Nc2ccc(-c3ccn4c(CC(F)(F)F)cnc4c3C#N)cc2Cl)CC1` [Example 94], the melting point is 202.6 °C. In series [1], the EC50 was 174 nM.

Regarding `CCc1cnc2c(C#N)c(N3CCN(c4nc(C)cc(C)n4)CC3)ccn12` [Example 19], the melting point turned out to be 231.4 °C. The “GTPγS - hR2 PAM pEC50” value in series [1] worked out at 5.64.

`N#Cc1c(-c2ccc(Sc3ccccc3)cc2)ccn2c(CC(F)(F)F)cnc12` [Example 71] returned a melting point of 195.6 °C. Moreover, the EC50 in series [1] was 182 nM.

`CC(C)(O)C1CCN(c2ccc(-c3ccn4c(CC(F)(F)F)cnc4c3C#N)cc2)CC1` [Example 112] registered a melting point of 174 °C. In series [1], the EC50 was 676 nM.

In turn, `CCCc1cnc2c(C#N)c(N3CCN(c4ccccc4)CC3)ccn12` [Example 15] had a melting point of 148.2 °C. Moreover, in series [1], the “GTPγS - hR2 PAM pEC50” value was determined as 6.01.

`FC(F)(F)Cc1cnc2c(Cl)c(CN3CCC(F)(c4ccccc4)CC3)ccn12` [Example 35]: the melting point amounted to 154.8 °C. In series [1], the EC50 was 603 nM.

In turn, `Cc1cc(Oc2ccc(-c3ccn4c(CCC5CC5)cnc4c3C#N)cc2F)ccn1` [Example 75] displayed a melting point of 277.2 °C. The EC50 in series [1] was 372 nM.

`CC(C)(O)c1ccc(C2CCN(c3ccn4c(CC(F)(F)F)cnc4c3C#N)CC2)cc1` [Example 54] gave a melting point of 155.4 °C. Moreover, in series [1], the EC50 was 240 nM.

`N#Cc1c(N2CCc3c(oc4ccccc34)C2)ccn2c(CC(F)(F)F)cnc12` [Example 116] displayed a melting point of 252.5 °C. For the same molecule, in series [1], the EC50 was 174 nM.

In turn, `FC(F)(F)Cc1cnc2c(Cl)c(N3CCC4(CC3)OCc3ccccc34)ccn12` [Example 66] showed a melting point of 174.4 °C. In addition, the EC50 in series [1] is 282 nM.

In turn, `N#Cc1c(N2CCC(O)(c3ccccc3F)CC2)ccn2c(CC(F)(F)F)cnc12` [Example 62] showed a melting point of 289.8 °C. For the same molecule, the EC50 in series [1] was 166 nM.

For orientation: melting point means the temperature, or range, at which the solid turns liquid.
